Experimental data reported in ChEMBL document CHEMBL1146202, “First report of plasmid-mediated qnrA1 in a ciprofloxacin-resistant Escherichia coli strain in Latin America” (2007).
≈ marks a conversion by molar mass, not a printed value.

Assays:
Format in all cases: functional
Escherichia coli [1] = test: Antimicrobial activity against Escherichia coli qnrA1 producing urinary specimen isolate 13.52 by agar dilution method; conditions: Urine
Escherichia coli [2] = test: Antimicrobial activity against streptomycin-resistant Escherichia coli J53 by agar dilution method
Escherichia coli [3] = test: Antimicrobial activity against streptomycin-resistant Escherichia coli J53 transconjugant with qnrA1 producing urinary specimen isolate 13.52 by agar dilution method

Which MIC (Escherichia coli [1]) does the source give for `CN[C@@H]1[C@H](O[C@H]2[C@H](O[C@H]3[C@H](O)[C@@H](O)[C@H](N=C(N)N)[C@@H](O)[C@@H]3N=C(N)N)O[C@@H](C)[C@]2(O)C=O)O[C@@H](CO)[C@H](O)[C@H]1O` (stereo in doubt) [STREPTOMYCIN] here?
Its MIC is 192 µg/mL (≈ 330 µM).

And the MIC (Escherichia coli [2])?
Its MIC is > 1020 µg/mL.

And the MIC (Escherichia coli [3]; J53, Urine)?
Its MIC is > 1020 µg/mL.

Which results are given for `CO[C@@]1(NC(=O)Cc2cccs2)C(=O)N2C(C(=O)O)=C(COC(N)=O)CS[C@@H]21` [CEFOXITIN]?
MIC (Escherichia coli [1]): 32 µg/mL (≈ 74.9 µM); MIC (Escherichia coli [2]): 8 µg/mL (≈ 18.7 µM); MIC (Escherichia coli [3]; J53, Urine): 256 µg/mL (≈ 599 µM)

`CO/N=C(\C(=O)N[C@@H]1C(=O)N2C(C(=O)O)=C(CSc3nc(=O)c(O)nn3C)CS[C@H]12)c1csc(N)n1` (stereo in doubt) [CEFTRIAXONE] was tested. Which MIC (Escherichia coli [1]) did it give?
Its MIC is 8 µg/mL (≈ 14.4 µM).

What about the MIC (Escherichia coli [2]) of the same molecule?
Its MIC is 0.047 µg/mL (≈ 0.0847 µM).

What about the MIC (Escherichia coli [3]; J53, Urine) of the same molecule?
The MIC was 8 µg/mL (≈ 14.4 µM).

`O=C(N[C@H](CO)[C@H](O)c1ccc([N+](=O)[O-])cc1)C(Cl)Cl` [CHLORAMPHENICOL] was tested. Which MIC (Escherichia coli [1]) did it give?
Its MIC is > 256 µg/mL.

And the MIC (Escherichia coli [2])?
The MIC was 8 µg/mL (≈ 24.8 µM).

What about the MIC (Escherichia coli [3]; J53, Urine) of the same molecule?
Its MIC is 48 µg/mL (≈ 149 µM).

For `C[C@H]1COc2c(N3CCN(C)CC3)c(F)cc3c(=O)c(C(=O)O)cn1c23.C[C@H]1COc2c(N3CCN(C)CC3)c(F)cc3c(=O)c(C(=O)O)cn1c23.O` [LEVOFLOXACIN], which MIC (Escherichia coli [1]) is on record?
The MIC was 8 µg/mL.

What about the MIC (Escherichia coli [2]) of the same molecule?
Its MIC is 0.064 µg/mL.

What about the MIC (Escherichia coli [3]; J53, Urine) of the same molecule?
Its MIC is 1.5 µg/mL.

With `CC(O)[C@H]1C(=O)N2C(C(=O)O)=C(SCCNC=N)C[C@H]12` (single isomer, unassigned) [IMIPENEM ANHYDROUS] as the molecule, how does the MIC (Escherichia coli [1]) read?
Its MIC is ≤ 0.025 µg/mL.

What about the MIC (Escherichia coli [2]) of the same molecule?
The MIC was ≤ 0.025 µg/mL.

What about the MIC (Escherichia coli [3]; J53, Urine) of the same molecule?
The MIC was ≤ 0.025 µg/mL.

How did the MIC (Escherichia coli [1]) turn out when `CO/N=C(\C(=O)N[C@@H]1C(=O)N2C(C(=O)[O-])=C(C[N+]3(C)CCCC3)CS[C@H]12)c1csc(N)n1` [CEFEPIME] was run?
The MIC was 0.5 µg/mL (≈ 1.04 µM).

And the MIC (Escherichia coli [2])?
Its MIC is 0.06 µg/mL (≈ 0.125 µM).

And the MIC (Escherichia coli [3]; J53, Urine)?
The MIC was 0.5 µg/mL (≈ 1.04 µM).

Which MIC (Escherichia coli [1]) does the source give for `NC[C@H]1O[C@H](O[C@H]2[C@H](O)[C@@H](O[C@H]3O[C@H](CO)[C@@H](O)[C@H](N)[C@H]3O)[C@H](N)C[C@@H]2N)[C@H](O)[C@@H](O)[C@@H]1O` [KANAMYCIN] here?
The MIC was 32 µg/mL (≈ 66 µM).

And the MIC (Escherichia coli [2])?
The MIC was 8 µg/mL (≈ 16.5 µM).

What about the MIC (Escherichia coli [3]; J53, Urine) of the same molecule?
The MIC was 128 µg/mL (≈ 264 µM).

With `CCn1cc(C(=O)O)c(=O)c2ccc(C)nc21` [NALIDIXIC ACID] as the molecule, how does the MIC (Escherichia coli [1]) read?
The MIC was 256 µg/mL (≈ 1100 µM).

And the MIC (Escherichia coli [2])?
Its MIC is 4 µg/mL (≈ 17.2 µM).

And the MIC (Escherichia coli [3]; J53, Urine)?
The MIC was 128 µg/mL (≈ 551 µM).

What does the source list for GENTAMICIN?
MIC (Escherichia coli [1]): 2 µg/mL; MIC (Escherichia coli [2]): 0.125 µg/mL; MIC (Escherichia coli [3]; Urine): 2 µg/mL

Which MIC (Escherichia coli [1]) does the source give for `NCC[C@H](O)C(=O)N[C@@H]1C[C@H](N)[C@@H](O[C@H]2O[C@H](CN)[C@@H](O)[C@H](O)[C@H]2O)[C@H](O)[C@H]1O[C@H]1O[C@H](CO)[C@@H](O)[C@H](N)[C@H]1O` [AMIKACIN] here?
Its MIC is 4 µg/mL (≈ 6.83 µM).

And the MIC (Escherichia coli [2])?
The MIC was 2 µg/mL (≈ 3.42 µM).

What about the MIC (Escherichia coli [3]; J53, Urine) of the same molecule?
The MIC was 2 µg/mL (≈ 3.42 µM).

`CC1(C)S[C@@H]2[C@H](NC(=O)[C@H](N)c3ccccc3)C(=O)N2[C@H]1C(=O)O` [AMPICILLIN] was tested. Which MIC (Escherichia coli [1]) did it give?
The MIC was > 256 µg/mL.

What about the MIC (Escherichia coli [2]) of the same molecule?
Its MIC is 8 µg/mL (≈ 22.9 µM).

And the MIC (Escherichia coli [3]; J53, Urine)?
Its MIC is > 256 µg/mL.

How did the MIC (Escherichia coli [1]) turn out when `COc1c(N2CCNC(C)C2)c(F)cc2c(=O)c(C(=O)O)cn(C3CC3)c12` (stereo not given) [GATIFLOXACIN] was run?
The MIC was 8 µg/mL (≈ 21.3 µM).

What about the MIC (Escherichia coli [2]) of the same molecule?
The MIC was 0.012 µg/mL (≈ 0.032 µM).

What about the MIC (Escherichia coli [3]; J53, Urine) of the same molecule?
Its MIC is 1 µg/mL (≈ 2.66 µM).

What does the source list for `C[C@@H](O)[C@H]1C(=O)N2C(C(=O)O)=C(S[C@@H]3CN[C@H](C(=O)N(C)C)C3)[C@H](C)[C@H]12` [MEROPENEM]?
MIC (Escherichia coli [1]): ≤ 0.025 µg/mL; MIC (Escherichia coli [2]): ≤ 0.025 µg/mL; MIC (Escherichia coli [3]; J53, Urine): ≤ 0.025 µg/mL

Which MIC (Escherichia coli [1]) does the source give for `CC(C)(O/N=C(\C(=O)N[C@@H]1C(=O)N2C(C(=O)[O-])=C(C[n+]3ccccc3)CS[C@H]12)c1csc(N)n1)C(=O)O` [CEFTAZIDIME] here?
Its MIC is 64 µg/mL (≈ 117 µM).

And the MIC (Escherichia coli [2])?
The MIC was 0.25 µg/mL (≈ 0.457 µM).

And the MIC (Escherichia coli [3]; J53, Urine)?
The MIC was 128 µg/mL (≈ 234 µM).
